Experimental data as given in patent US20210196779A1, “Compositions and Methods for Treating Steroid Hormone-Related Diseases or Disorders” (YALE UNIVERSITY, priority 2018, published 2021).

Key:
MDA-MB-453 cells = experiment: Cell growth assay, MDA-MB-453 breast cancer cells; assay type: cell-based; conditions: 4 days
Description: (§1) MCF7, T47D, MDA-MB-453, MDA-MB-231 breast cancer cells were grown in corning T75 cell culture flask in RPMI1640 medium supplemented with 5% FBS, 50 μg/ml Kanamycin in a 37° C., 5% CO2 incubator.
(§2) 20,000 cells in 1 ml of medium (phenol red free RPMI1640, 5% charcoal-dialysis FBS, 50 μg/ml Kanamyacin) were seeded per well of a 24-well plate and incubated in a 37° C. incubator with 5% CO2 overnight. Different concentrations of herbal extract were added to each well in order to have final concentrations from 50 μg/ml to 500 μg/ml. For prostate cancer cells, DHT (25 nM) was used to stimulate androgen receptor activity. For glucocorticoid receptor overexpressed LNCaP cells, dexamethasone (50 nM) was used to stimulate glucocorticoid receptor activity. For all breast cancer cells, E2 (10 nM) was used to stimulate ER activity. Control medium without any steroid hormone was used as a control setting. After 4 days of incubation, cells were fixed and stained for 2 h with 0.5% methylene blue in 50% ethanol, followed by washing with tap water to remove unbound dye. Plates were air dried and then cells were dissolved in 1% sarkosyl (sodium lauroyl sarcosinate) by shaking at room temperature for 3 h. Cell growth was quantified based on the amount of methylene blue adsorbed by the cells as measured by a spectrophotometer (Molecular Devices) at 595 nm. […]

[1] = Body weight of nude mice during the treatment; assay type: in vivo; conditions: equivalent dose to Y1830 (2.2 mg/kg, PO, B.I.D.), 11 days
Description: 22RV1 prostate cancer cells 5×10^6 cells in 100 μl Matrigel were injected subcutaneously into 10 week old male NCR nude mice. When 22RV1 tumor reached 5 mm×5 mm, mice were orally fed with Y1830 (water extract, 500 mg/kg, PO, B.I.D, N5) and RGA (or the fraction comprising RGA) (equivalent dose to Y1830: 2.2 mg/kg, PO, B.I.D.) for 11 days. Tumor volume was estimated by using the formula length×width^2/2.
When tumors reached 5 mm×5 mm, Y1830 water extract (500 mg/kg, BID, PO) and RGA (or the fraction comprising RGA) at equivalent dose to Y1830 were used to treat animals for 11 days. […] Therefore, it is further concluded that compounds other than molecules in RGA containing fraction of Y1830 total extract may also have anti-tumor activity or prevent tumor to develop drug resistant.

T4D cells = experiment: Cell growth assay, T4D breast cancer cells; assay type: cell-based; conditions: under E2 stimulation, 4 days
Description: as §1, §2

MCF7 cells = experiment: Cell growth assay, MCF7 breast cancer cells; assay type: cell-based; conditions: in the presence or absence of E2, 4 days
Description: as §1, §2

Row | SMILES | inhibition of growth of double negative MDA-MB-453 cells (MDA-MB-453 cells) | animal body weight loss [1] | inhibitory effect on T4D cell growth (T4D cells) | inhibition on the growth of MCF7 cells (MCF7 cells)
1 | CC(=O)OCC1OC(Oc2cc3c(c(O)c2C)C(=O)c2ccc(O)cc2C3=O)C(OC2OC(C)C(O)C(O)C2O)C(O)C1O [RGA, 1,3,6-Trihydroxy-2-methyl-9,10-anthracenedione 3-O-[α-L-Rhamnopyranosyl-(1→2)-6-O-acetyl-β-D-glucopyranoside]] | inhibited the growth | did not cause animal body weight loss | strong inhibitory effect | –
2 | Cc1c(OC2OC(CO)C(O)C(O)C2OC2OC(C)C(O)C(O)C2O)cc2c(c1O)C(=O)c1ccc(O)cc1C2=O [RG, 1,3,6-Trihydroxy-2-methyl-9,10-anthracenedione 3-O-[α-L-Rhamnopyranosyl-(1→2)-β-D-glucopyranoside]] | – | – | – | very weak growth inhibition
